Measurements as given in patent US11564912B2, “Methods for treating irritable bowel syndrome (IBS)” (Salix Pharmaceuticals, Inc., priority 2008, dated 2023).

Legend:
[1] = system: patients with nonconstipation irritable bowel syndrome (non-C IBS); test: Trial of rifaximin 550 mg TID for 14 days with 10-week follow-up (Example 5; Study 2 of Example 6); format: in vivo, human; details: for % with decrease in SF (stool frequency): Rifaximin 550 mg TID
Text: A measure of efficacy is based on subjects' answers to the Weekly Subject Global Assessment (SGA) questions over the 4 week study duration in relation to their IBS symptoms. […] Another measure of efficacy is based on subjects' answers to the Weekly Subject Global Assessment (SGA) question over the 4 week study duration in relation to their IBS symptom of bloating. The SGA question is asked weekly as follows: “In the past 7 days, have you had adequate relief of your IBS symptom of bloating?” (Yes/No). […] Other measures of efficacy include the changes in dIBS symptoms from baseline to each week of the 4 weeks in the study (e.g., abdominal pain and discomfort, bloating, number of stools per day, stool consistency, urgency with loose or watery stools).
The primary efficacy endpoint of the study was the proportion of subjects who achieve adequate relief of IBS symptoms for at least 2 weeks during 10 the first 4 weeks of the 10-week follow-up phase.
Two measures of efficacy were assessed.
Subjects were questioned on the relief of overall IBS symptoms and bloating. […] The analyses defined success as a “yes” response to questions regarding adequate relief.
Assessment (SGA) questions over the 4 week study duration in relation to their IBS symptoms. […] Another measure of efficacy is based on subjects' answers to the Weekly Subject Global Assessment (SGA) question over the 4 week study duration in relation to their IBS symptom of bloating. The SGA question is asked weekly as follows: “In the past 7 days, have you had adequate relief of your IBS symptom of bloating'?” (Yes/No).
All subpopulations in the study responded to therapy. Baseline severity was determined during screening for Abdominal Pain/Discomfort and Bloating, and the number, type (normal, hard, loose) and urgency of bowel movements. Duration of effect was assessed in a ten week follow-up period.
(§1) A measure of efficacy is based on subjects' answers to the Weekly Subject Global Assessment (SGA) questions over the study duration in relation to their IBS symptoms.

subjects with IBS [2] = test: Combined analysis of the two studies of rifaximin 550 mg TID; format: in vivo, human
Text: as §1

subjects with dIBS = test: Study of rifaximin BID in subjects with dIBS: adequate relief of IBS symptoms and bloating; format: in vivo, human; details: rifaximin 550 mg BID 14 days, patients with dIBS
subjects with IBS [3] = test: Study 1 of rifaximin 550 mg TID for 14 days, analysis after 3 months; format: in vivo, human
Text: as §1

[4] = system: patients with nonconstipation irritable bowel syndrome (non-C IBS); test: Trial of rifaximin 550 mg TID for 14 days with 10-week follow-up (Example 5; Study 2 of Example 6); format: in vivo, human
[5] = as previously disclosed by Applicants; cited from earlier work
[6] = Rifaximin exposure in subjects having IBS; format: in vivo, human
[7] = Study 2, at least 2 out of 4 weeks adequate relief during weeks 3 through 6 (weekly question)
[8] = Study 2, at least 2 weeks during PEP
[9] = weekly mean vs baseline for at least 2 weeks during PEP
[10] = at least 2 out of 4 weeks adequate relief during weeks 3 through 6 (weekly question)

With “(2S,16Z,18E,20S,21S,22R, 23R,24R,25S,26S,27S,28E)-5,6,21,23,25 Pentahydroxy-27-methoxy -2,4,11,16,20,22,24,26-octamethyl-2,7-(epoxypentadeca-(1,11,13)trienimino)benzofuro (4,5-e) pyrido(1,2,-a) benzimidazole-1,15(2H)-dione,25-acetate [Rifaximin]” the “Daily abdominal pain <2, responders” value ([1]; Study 2, <2 for at least 50% of days in a week for at least 2 weeks during PEP) was 39%, the “Global IBS symptoms, responders” value [1, 7] was 41% and the “IBS symptom of Bloating, responders” value [1, 7] was 41%. The “Abdominal Pain reduction of 2 point in mean, responders” value [1, 8] was 25%, the “Abdominal Pain reduction of 2 point in median, responders” value [1, 8] was 41% and the “Abdominal Pain reduction of 3 point in mean, responders” value [1, 8] was 6% vs 7%. For the same substance, the “Abdominal Pain reduction of 3 point in median, responders” value [1, 8] was 21%, the “Overall reduction of mean weekly abdominal pain by >=25%, responders” value [1, 8] was 58% and the “Overall reduction of mean weekly abdominal pain by >=50%, responders” value [1, 8] was 35%. For the same substance, the “Overall reduction of mean weekly abdominal pain by >=75%, responders” value [1, 8] was 14%, the “Overall reduction of median weekly abdominal pain by >=25%, responders” value [1, 8] was 62% and the “Overall reduction of median weekly abdominal pain by >=50%, responders” value [1, 8] was 44%. For the same substance, the “Overall reduction of median weekly abdominal pain by >=75%, responders” value [1, 8] was 20%, the “Abdominal pain reduction of 1 point in mean, responders” value ([1]; Study 2, weekly mean vs baseline for at least 2 weeks during PEP) was 52% and the “Abdominal pain reduction of 1 point in median, responders” value ([1]; Study 2, weekly median vs baseline for at least 2 weeks during PEP) was 62%. The “% with decrease in SF (stool frequency)” value ([1]; Week 1) was 14.4%, the “% with decrease in SF (stool frequency)” value ([1]; Week 2) was 20.6% and the “% with decrease in SF (stool frequency)” value ([1]; Week 3) was 22.2%. The “% with decrease in SF (stool frequency)” value ([1]; Week 4) was 21.6%, the “% with decrease in SF (stool frequency)” value ([1]; Week 5) was 25.7% and the “% with decrease in SF (stool frequency)” value ([1]; Week 6) was 22.9%. For the same substance, the “% with decrease in SF (stool frequency)” value ([1]; Week 7) was 23.8%, the “% with decrease in SF (stool frequency)” value ([1]; Week 8) was 24.4% and the “% with decrease in SF (stool frequency)” value ([1]; Week 9) was 25.4%. For the same substance, the “% with decrease in SF (stool frequency)” value ([1]; Week 10) was 26.7%, the “% with decrease in SF (stool frequency)” value ([1]; Week 11) was 25.4% and the “% with decrease in SF (stool frequency)” value ([1]; Week 12) was 27.0%. For the same substance, the “Abdominal Pain reduction of 2 point in mean, responders” value (subjects with IBS [2]; at least 2 weeks during PEP) was 25%, the “Overall reduction of mean weekly abdominal pain by >=25%, responders” value (subjects with IBS [2]; at least 2 weeks during PEP) was 57% and the “Overall reduction of mean weekly abdominal pain by >=50%, responders” value (subjects with IBS [2]; at least 2 weeks during PEP) was 35%. For the same substance, the “Overall reduction of mean weekly abdominal pain by >=75%, responders” value (subjects with IBS [2]; at least 2 weeks during PEP) was 14%, the “Overall reduction of median weekly abdominal pain by >=25%, responders” value (subjects with IBS [2]; at least 2 weeks during PEP) was 62% and the “Overall reduction of median weekly abdominal pain by >=50%, responders” value (subjects with IBS [2]; at least 2 weeks during PEP) was 44%. For the same substance, the “Overall reduction of median weekly abdominal pain by >=75%, responders” value (subjects with IBS [2]; at least 2 weeks during PEP) was 21%, the “Abdominal pain reduction of 1 point in mean, responders” value (subjects with IBS [2]; [9]) was 52% and the “Tolerability, incidence of adverse events compared with placebo” value (subjects with dIBS) was “well tolerated”. The “Daily abdominal pain <2, responders” value (subjects with IBS [3]; <2 for at least 50% of days in a week for at least 2 weeks during PEP) was 40%, the “Global IBS symptoms, responders” value (subjects with IBS [3]; [10]) was 41% and the “IBS symptom of Bloating, responders” value (subjects with IBS [3]; [10]) was 40%. For the same substance, the “Abdominal Pain reduction of 2 point in mean, responders” value (subjects with IBS [3]; at least 2 weeks during PEP) was 26%, the “Abdominal Pain reduction of 2 point in median, responders” value (subjects with IBS [3]; at least 2 weeks during PEP) was 37% and the “Abdominal Pain reduction of 3 point in mean, responders” value (subjects with IBS [3]; at least 2 weeks during PEP) was 6% vs 7%. The “Abdominal Pain reduction of 3 point in median, responders” value (subjects with IBS [3]; at least 2 weeks during PEP) was 22%, the “Overall reduction of mean weekly abdominal pain by >=25%, responders” value (subjects with IBS [3]; at least 2 weeks during PEP) was 56% and the “Overall reduction of mean weekly abdominal pain by >=50%, responders” value (subjects with IBS [3]; at least 2 weeks during PEP) was 36%. The “Overall reduction of mean weekly abdominal pain by >=75%, responders” value (subjects with IBS [3]; at least 2 weeks during PEP) was 14%, the “Overall reduction of median weekly abdominal pain by >=25%, responders” value (subjects with IBS [3]; at least 2 weeks during PEP) was 63% and the “Overall reduction of median weekly abdominal pain by >=50%, responders” value (subjects with IBS [3]; at least 2 weeks during PEP) was 44%. The “Overall reduction of median weekly abdominal pain by >=75%, responders” value (subjects with IBS [3]; at least 2 weeks during PEP) was 23%, the “Abdominal pain reduction of 1 point in mean, responders” value (subjects with IBS [3]; [9]) was 52% and the “Abdominal pain reduction of 1 point in median, responders” value (subjects with IBS [3]; weekly median vs baseline for at least 2 weeks during PEP) was 63%. The “Subjects with skin or subcutaneous tissue disorders” value ([4]; 550 mg rifaximin TID) was 1.3%, the “Early discontinuation of study, primary reason Adverse Event/Serious Adverse Event” value ([4]; Rifaximin 550 mg TID, randomized subjects (316)) was 0 n (%) and the “Rifaximin exposure in healthy subjects compared with subjects having hepatic encephalopathy” value [5] was “significantly lower”. The “Rifaximin exposure, fold lower than neomycin exposure” value [6] was “more than 66 fold” and the “Rifaximin exposure, fold lower than rifampin exposure” value [6] was “more than 520 fold”.
